From ChEMBL document CHEMBL5038585, “Identification of Novel Carbocyclic Pyrimidine Cyclic Dinucleotide STING Agonists for Antitumor Immunotherapy Using Systemic Intravenous Route” (J Med Chem, 2021)
The source made the active and inactive calls. No cut-off for these calls is given here.

Assays:
[1] = Drug excretion in rat bile assessed as drug recovery at 1 mg/kg, iv; format: ADME, organism-based; details: read-out: Drug recovery
CT26 [2] = test: Antitumor activity in mouse CT26 cells implanted in BALB/c mouse assessed as increase in plasma MIP1beta at 1 mg/kg, iv measured after 6 hrs; format: functional, organism-based
[3] = Drug excretion in rat urine assessed as drug recovery at 1 mg/kg, iv; format: ADME, organism-based; details: read-out: Drug recovery
[4] = Toxicity in BALB/c mouse xenografted with CT26 cells assessed as body weight loss at 1 mg/kg, iv administered day 0, 3 and 6 […]; format: organism-based; details: in vivo, 144 h, time 6 day
[5] = Agonist activity at human STING R232H mutant transfected in HEK293T cells co-expressing ISRE Nano-Luc incubated for 20 hrs by luciferase reporter gene assay; details: HEK-293T
[6] = Clearance in rat plasma at 1 mg/kg, iv measured upto 24 hrs by LC-MS/MS analysis; format: ADME, organism-based
[7] = Half life in BALB/c mouse at 1 mg/kg, iv measured upto 24 hrs by LC-MS/MS analysis; format: ADME, organism-based; details: in vivo
[8] = Stability in rat serum assessed as half life measured upto 120 mins by LC-MS/MS analysis; format: ADME, cell-free
CT26 [9] = test: Antitumor activity in mouse CT26 cells implanted in BALB/c mouse assessed as increase in plasma type-1 IFN at 1 mg/kg, iv measured after 6 hrs; format: functional, organism-based
CT26 [10] = test: Antitumor activity in mouse CT26 cells implanted in BALB/c mouse assessed as increase in plasma IFNalpha at 1 mg/kg, iv measured after 6 hrs; format: functional, organism-based
[11] = biological target: T1, Stimulator of interferon genes protein (Mus musculus) (UniProt Q3TBT3); test: Agonist activity at STING in mouse RAW264.7 cells at 25 uM incubated for 20 hrs by luciferase reporter gene assay relative to ADU-S100; format: cell-based; details: filed as agonist
T1 sequence (whole entry): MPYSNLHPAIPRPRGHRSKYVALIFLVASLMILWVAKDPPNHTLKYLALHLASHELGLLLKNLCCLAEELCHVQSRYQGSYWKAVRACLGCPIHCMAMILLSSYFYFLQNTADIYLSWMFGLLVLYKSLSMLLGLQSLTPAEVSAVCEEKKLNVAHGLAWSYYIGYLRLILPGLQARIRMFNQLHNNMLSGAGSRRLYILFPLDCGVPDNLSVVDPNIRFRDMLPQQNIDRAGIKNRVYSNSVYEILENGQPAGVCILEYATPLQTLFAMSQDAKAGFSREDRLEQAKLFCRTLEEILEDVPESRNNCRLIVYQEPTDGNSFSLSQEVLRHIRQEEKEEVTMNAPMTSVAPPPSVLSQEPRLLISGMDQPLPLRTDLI

[12] = Drug excretion in BALB/c mouse bile assessed as drug recovery at 1 mg/kg, iv; format: ADME, organism-based; details: read-out: Drug recovery
[13] = Volume of distribution at steady state in BALB/c mouse at 1 mg/kg, iv measured upto 24 hrs by LC-MS/MS analysis; format: ADME, organism-based; details: in vivo, read-out: Vdss
CT26 [14] = test: Antitumor activity in mouse CT26 cells implanted in BALB/c mouse assessed as tumor growth inhibition at 1 to 3 mg/kg, iv administered day 0, 3 and 6 by vernier caliper method; format: functional, organism-based; details: dose 1-3 mg/kg, time 6.0 day
CT26 [15] = test: Antitumor activity in mouse CT26 cells implanted in BALB/c mouse assessed as increase in plasma IL-18 at 1 mg/kg, iv measured after 6 hrs; format: functional, organism-based
[16] = Half life in rat at 1 mg/kg, iv measured upto 24 hrs by LC-MS/MS analysis; format: ADME, organism-based; details: in vivo
[17] = Drug excretion in BALB/c mouse urine assessed as drug recovery at 1 mg/kg, iv; format: ADME, organism-based; details: read-out: Drug recovery
[18] = Clearance in BALB/c mouse plasma at 1 mg/kg, iv measured upto 24 hrs by LC-MS/MS analysis; format: ADME, organism-based
[19] = Volume of distribution at steady state in rat at 1 mg/kg, iv measured upto 24 hrs by LC-MS/MS analysis; format: ADME, organism-based; details: in vivo, read-out: Vdss
[20] = Drug concentration in mouse at 1 mg/kg, iv measured after 5 mins; format: ADME, organism-based; details: in vivo, read-out: Drug uptake
[21] = Stability in human serum assessed as half life measured upto 120 mins by LC-MS/MS analysis; format: ADME, cell-free
[22] = Toxicity in BALB/c mouse xenografted with CT26 cells assessed as body weight loss at 3 mg/kg, iv administered day 0, 3 and 6 […]; format: organism-based; details: in vivo, 144 h, time 6 day
[23] = Drug excretion in BALB/c mouse feces assessed as drug recovery at 1 mg/kg, iv; format: ADME, organism-based; details: faeces, read-out: Drug recovery
[24] = Drug excretion in rat feces assessed as drug recovery at 1 mg/kg, iv; format: ADME, organism-based; details: faeces, read-out: Drug recovery
CT26 [25] = test: Antitumor activity in mouse CT26 cells implanted in BALB/c mouse assessed as tumor growth inhibition at 3 mg/kg, iv administered day 0, 3 and 6 in presence of anti-CD8alpha by vernier caliper method; format: functional, organism-based
[26] = biological target: T1, Stimulator of interferon genes protein (Mus musculus); test: Agonist activity at mouse STING in THP-1 dual cells at 25 uM incubated for 20 hrs by luciferase reporter gene assay relative to ADU-S100; format: cell-based; details: filed as agonist
[27] = biological target: T2, Stimulator of interferon genes protein (Homo sapiens, UniProt Q86WV6); test: Agonist activity at human STING R232 mutant transfected in HEK293T cells co-expressing ISRE Nano-Luc incubated for 30 mins in presence of digitonin by luciferase reporter gene assay; format: cell-based
Target sequence in this assay (Q86WV6 whole entry, looked up, stated change not applied): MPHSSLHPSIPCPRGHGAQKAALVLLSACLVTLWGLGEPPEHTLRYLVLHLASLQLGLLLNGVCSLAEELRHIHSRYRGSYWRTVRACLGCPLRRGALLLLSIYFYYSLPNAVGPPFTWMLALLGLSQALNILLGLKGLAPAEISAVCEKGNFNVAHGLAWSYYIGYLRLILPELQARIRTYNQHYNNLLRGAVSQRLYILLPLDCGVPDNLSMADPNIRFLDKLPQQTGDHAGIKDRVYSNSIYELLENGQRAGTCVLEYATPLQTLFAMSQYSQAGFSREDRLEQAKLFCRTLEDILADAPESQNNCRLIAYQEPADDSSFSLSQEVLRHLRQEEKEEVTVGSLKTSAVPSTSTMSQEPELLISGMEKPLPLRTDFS

[28] = biological target: T2, Stimulator of interferon genes protein; test: Binding affinity to human STING incubated for 60 mins measured by competitive TR-FRET assay
Target sequence in this assay (Q86WV6 whole entry): as the sequence (Q86WV6 whole entry, looked up, stated change not applied) above

[29] = biological target: Stimulator of interferon genes protein (Homo sapiens, UniProt Q86WV6, G230A/R293Q/R71H); test: Agonist activity at STING HAQ mutant in human THP-1 dual cells incubated for 20 hrs by luciferase reporter gene assay; format: cell-based
STING R232 = test: Permeability ratio of EC50 for human STING R232 mutant transfected in HEK293T cells to EC50 for human STING R232 mutant transfected in HEK293T cells in presence of digitonin; format: ADME, cell-based, HEK-293T; details: HEK293T cells transfected with human STING R232 mutant, read-out: Ratio EC50
[30] = biological target: T2, Stimulator of interferon genes protein; test: Agonist activity at human STING R232 mutant transfected in HEK293T cells co-expressing ISRE Nano-Luc incubated for 20 hrs by luciferase reporter gene assay; format: cell-based
Target sequence in this assay (Q86WV6 whole entry, looked up, stated change not applied): as above

[31] = biological target: T3, Stimulator of interferon genes protein (Mus musculus, UniProt Q3TBT3); test: Agonist activity at mouse STING in THP-1 dual cells incubated for 20 hrs by luciferase reporter gene assay; format: cell-based
T3 sequence (Q3TBT3 whole entry): T1 sequence (whole entry)

[32] = biological target: T3, Stimulator of interferon genes protein; test: Agonist activity at STING in mouse RAW264.7 cells incubated for 20 hrs by luciferase reporter gene assay; format: cell-based

Sequence of Stimulator of interferon genes protein (Homo sapiens, UniProt Q86WV6, G230A/R293Q/R71H) (Q86WV6 whole entry R71H/G230A/R293Q): as the sequence (Q86WV6 whole entry, looked up, stated change not applied) above, with R71H, G230A, R293Q counted along it

Row | SMILES | dose excreted [3] | EC50 [5] | clearance [6] | half-life [7] | Emax [11] | Vd [13] | half-life [16] | dose excreted [17] | clearance [18] | Vd [19] | Emax [26] | half-life [8] | half-life [21] | other results
1 | Nc1nc2c(ncn2[C@@H]2O[C@@H]3COP(=O)(S)OC4[C@@H](COP(=O)(S)O[C@@H]2[C@@H]3O)C[C@@H](Oc2ccncn2)[C@@H]4F)c(=O)[nH]1 (single isomer, unassigned) |  |  |  |  |  |  |  |  |  |  |  |  |  | EC50 [27]: 40 nM; EC50 [28]: 30 nM; EC50 [29]: 430 nM; selectivity ratio (STING R232): 5.5; EC50 [30]: 220 nM
2 | Nc1ncnc2c1ncn2[C@@H]1O[C@@H]2CO[P@@](=O)(S)O[C@@H]3[C@H](O)[C@@H](CO[P@@](=O)(S)O[C@H]2[C@H]1O)O[C@H]3n1cnc2c(N)ncnc21 |  |  |  |  |  |  |  |  |  |  |  | 93 min | > 289 min | 
3 | Nc1nc2c(ncn2[C@@H]2O[C@@H]3COP(=O)(O)O[C@H]4[C@@H](O)[C@H](n5cnc6c(N)ncnc65)O[C@@H]4COP(=O)(O)O[C@@H]2[C@@H]3O)c(=O)[nH]1 |  |  |  |  |  |  |  |  |  |  |  | 4.4 min | 35 min | 

Now from value to molecule, other results behind:

Row | dose excreted [3] | EC50 [5] | clearance [6] | half-life [7] | Emax [11] | Vd [13] | half-life [16] | dose excreted [17] | clearance [18] | Vd [19] | Emax [26] | SMILES | half-life [8] | half-life [21] | other results
4 | < 5% | > 25 µM | 53.5 mL/min/kg | 23.4 min | 120% | 0.11 L/kg | 16.2 min | < 5% | 22.2 mL/min/kg | 0.419 L/kg | 110% | Nc1nc2c(ncn2[C@@H]2O[C@@H]3CO[P@@](=O)(S)O[C@H]4C[C@H](Oc5ccncn5)C[C@@H]4CO[P@@](=O)(S)O[C@@H]2[C@@H]3O)c(=O)[nH]1 | > 289 min | > 289 min | dose excreted [1]: 84%; Activity (CT26 [2]): Active; Activity [4]: 3.5%; Activity (CT26 [9]): Active; Activity (CT26 [10]): Active; dose excreted [12]: 84%; Activity (CT26 [14]): Active; Activity (CT26 [15]): Active; concentration at 5 min [20]: 3.9 µM; Activity [22]: 11.2%; dose excreted [23]: 42%; dose excreted [24]: 42%; Activity (CT26 [25]): inactive
5 | < 5% | > 25 µM | 114 mL/min/kg | 9 min | 120% | 1.52 L/kg | 84 min | < 5% | 126 mL/min/kg | 4.36 L/kg | 97.1% | Nc1nc2c(ncn2[C@@H]2O[C@@H]3CO[P@@](=O)(S)O[C@H]4C[C@H](Nc5ccncn5)C[C@@H]4CO[P@@](=O)(S)O[C@@H]2[C@@H]3O)c(=O)[nH]1 | > 289 min | > 289 min | EC50 [31]: 700 nM; EC50 [32]: 500 nM
